Results on three compounds are retold here after EP4778522A1, “USE OF PYRROLOPYRIMIDINE COMPOUND AND COMPOSITION THEREOF” (Guangzhou Joyo Pharmatech Co., Ltd., priority 2023, dated 2025).

The subject of test [1] is imiquimod-induced C3H/HeJ mice alopecia areata model. Nature of the test: Imiquimod-induced mouse alopecia areata model: number of hair follicles in skin. The test is classed as in vivo. Conditions: Baricitinib 10 mg/kg oral by gavage twice a day for one month, skin at alopecia areata part. As to the method:
After the animals were anesthetized and euthanized, the complete skin tissue of the alopecic area was cut along the junction between the normal skin of the back of the mouse and the alopecic area and perpendicular to the skin surface. A part of the tissue was taken, conventionally dehydrated and embedded. The remaining tissue was stored in a refrigerator at -80°C for later use.
The embedded skin tissue was cut into 3 µm-thick sections, and then the sections were dewaxed in xylene, hydrated by gradient ethanol, H&E stained, dehydrated, cleared and mounted. The hair follicles in skin tissue sections from each group were microscopically observed and photographed. The mean number of the hair follicles was calculated using Image J software.

Test [2] has the same test system. Description: Imiquimod-induced mouse alopecia areata model: hair growth. The note with it: Baricitinib 10 mg/kg oral by gavage twice a day for one month, Day 30; for Newly grown hair score: score 0-5. It counts as in vivo. On the procedure:
• 1) Animals: female C3H/He mice, SPF, aged 6-8 weeks at grouping. The animals were provided by Beijing Viewsolid Biotech. • 2) Reagents, positive drugs and test drugs
After one week of adaptive feeding of C3H/HeJ mice: modeling was performed by applying imiquimod ointment to the neck, 3 times a week. The mice were carefully taken out, and about 0.05 g of 5% imiquimod ointment was dipped with a clean medical cotton swab and then applied evenly to the skin on the neck over a range of about 1.5 cm×1.5 cm. Before each application, the local part was cleaned by normal saline to remove the residual drug in the previous time. The continuous administration time was no longer than 10 weeks. When alopecia areata with an area size > 1 cm×1 cm was formed at the administration part, the administration was stopped, proving that a preparation model was successful. The mice in the normal control group were modeled by using blank ointment (vaseline ointment).
During the period from the first administration to the end of the last administration after the alopecia areata modeling was successful, the alopecia areata part of each mouse was photographed once every 3 days, the photographing distance, angle and magnification times were fixed, and the hair growth of the alopecic areas on the backs of the mice was recorded.
Visual quantification of the alopecia area images was performed using ImageJ software. The hair growth area (a) and hair loss area (b) were calculated. The hair growth rate was counted and analyzed: hair growth rate (%) = (a/b)* 100%. The newly grown hairs at the alopecia areata part of the mice in each group were scored based on the hair growth rate. Table 14 Scoring criteria of newly grown hairs

In test [3] the test system is monobenzone-induced mouse vitiligo model. Description: Monobenzone-induced mouse vitiligo model: hair depigmentation area scoring. Also on record: Hair depigmentation area scoring: scale not given here. It counts as in vivo, C57BL/6 mice. As to the method:
• 1) Animals: C57BL/6 mice, specific pathogen-free (SPF), with equal numbers of females and males. The mice were 6-8 weeks old at grouping, with 10 mice per group. The animals were provided by Charles River Laboratories. • 2) Reagents, positive drugs and test drugs
Monobenzone induction method: after 1 week of adaptive feeding of all the animals, modeling was performed and all black hairs on the back of the mice were removed by a shaver. 10 animals were randomly selected as a normal control group and applied with 50 mg of vaseline once a day; and the remaining 80 animals were used for modeling and applied with 50 mg of 40% monobenzone depigmentation ointment once a day. The applying area of the normal control group and the model group was 2 cm*3 cm of the fixed part of the back, and the modeling was continuously performed for 103 days. In order to prevent the phenomenon that the animals lick the drugs, after the animals were applied with a modeling agent, they needed to be separately placed in an independent cage without padding for a period of time to naturally dry the modeling agent, and then they were placed in a rearing cage for normal rearing. During the modeling process, new hairs grown in the alopecic areas of the backs of the mice were shaved by the shaver and then applied with the drug.
The 40% monobenzone depigmentation ointment was applied every day. After modeling for 53 days, according to a depigmentation area score (see scoring criteria of Table 9), 70 animals successfully modeled in modeling group (score ≥ 2) were randomly divided into 7 groups with 10 mice per group. The mean depigmentation area score of the animals in each group was basically consistent before the administration, and the day of grouping was defined as day 0 of the administration treatment period. Table 8 Grouping and administration regimen
During the whole experiment process, the mice in normal control group (G1) were applied with 50 mg of vaseline once a day; and the mice in each model group (G2-G8) were applied with 50 mg of 40% monobenzone ointment once a day. After modeling for 53 days, the mice were grouped and subjected to drug treatment after grouping consecutively for 50 days. The modeling operation was maintained during the drug intervention period. The mice were applied with the drug twice a day for treatment at an interval of 6 hours or more. […]

Test [4] shares this test system. Nature of the test: Monobenzone-induced mouse vitiligo model: skin pathological analysis of melanin-containing hair follicles. It counts as in vivo, C57BL/6 mice. Conditions: 1.5% ruxolitinib ointment. As to the method: The mice were euthanized within 2-4 hours after the last administration, and approximately 1 cm^2 of the skin in the center of the depilated part of the mice was taken and fixed with 4% paraformaldehyde. The animal skin tissues were fixed with 4% paraformaldehyde, dehydrated, embedded with paraffin, sectioned and then subjected to HE staining. The stained sections were photographed by white light panoramic scanning, histopathological changes of the skin tissues and inflammatory cell infiltration were observed, and the number of melanin-containing hair follicles and/or the proportion of the melanin-containing hair follicles in the skin were quantitatively analyzed. The panoramic scanning files were opened by using CaseViewer software, a picture view with the length of about 3.8 mm was randomly selected, and the pictures were saved. The number of all the hair follicles and the number of the melanin-containing hair follicles in the picture were counted respectively by using ipwin32 software. The proportion of the melanin-containing hair follicles was calculated according to the following formula: Proportion of melanin-containing hair follicles = number of melanin-containing follicles/number of all follicles

Where [5] appears, read: 30 mg topical twice a day for 50 days.

“And” between values parts separate entries of the source, which are not always exact repeats. Equal values may be shown once. Marks after values point to notes of the source that are not given here.

`CCS(=O)(=O)N1CC(CC#N)(n2cc(-c3ncnc4[nH]ccc34)cn2)C1` [Baricitinib, reference compound]: the “Mean number of hair follicles” value in test [1] (listed as Positive control) and in test [1] (listed as positive drug) was 40 ± 7.36 throughout. The “Hair growth rate (%)” value in test [2] (listed as Positive control) was 69.58 ± 3.23 %; in test [2] (listed as positive drug) it was 69.58 ± 3.23%. The “Newly grown hair score” value in test [2] (listed as Positive control) and in test [2] (listed as positive drug) was 4.2 ± 0.2 throughout.
On to `C=CC[C@@H]1/C=C(\C)C[C@H](C)C[C@H](OC)[C@H]2O[C@@](O)(C(=O)C(=O)N3CCCC[C@H]3C(=O)O[C@H](/C(C)=C/[C@@H]3CC[C@@H](O)[C@H](OC)C3)[C@H](C)[C@@H](O)CC1=O)[C@H](C)C[C@@H]2OC` [tacrolimus, reference compound], for which the “Hair depigmentation area scoring” value in test [3] (Day 0 (before administration), 0.03% tacrolimus ointment group) is 3.60; in test [3] (Day 10, 0.03% tacrolimus ointment, 30 mg topical twice a day), 3.50; in test [3] (Day 20, 0.03% tacrolimus ointment, 30 mg topical twice a day), 3.40; in test [3] (Day 30, 0.03% tacrolimus ointment, 30 mg topical twice a day), 3.40; in test [3] (Day 35, 0.03% tacrolimus ointment, 30 mg topical twice a day), 2.60; in test [3] (Day 38, 0.03% tacrolimus ointment, 30 mg topical twice a day), 2.50. Moreover, the “Hair depigmentation area scoring” value in test [3] (Day 41, 0.03% tacrolimus ointment, 30 mg topical twice a day) is on record as 2.30; in test [3] (Day 44, 0.03% tacrolimus ointment, 30 mg topical twice a day), 2.20; in test [3] (Day 47, 0.03% tacrolimus ointment, 30 mg topical twice a day), 2.20; in test [3] (Day 50, 0.03% tacrolimus ointment, 30 mg topical twice a day), 2.20. Moreover, the “reduction rate of the depigmentation area score” value in test [3] (day 50, 0.03% tacrolimus ointment, compared with the model control group) was 56.9%.
Take `N#CC[C@H](C1CCCC1)n1cc(-c2ncnc3[nH]ccc23)cn1` [ruxolitinib, reference compound]: the “Hair depigmentation area scoring” value in test [3] (Day 0 (before administration), 1.5% ruxolitinib ointment group) is recorded as 3.90; in test [3] (Day 10, 1.5% ruxolitinib ointment, 30 mg topical twice a day), 3.80 **; in test [3] (Day 20, 1.5% ruxolitinib ointment, 30 mg topical twice a day) it was 3.70 **; in test [3] (Day 30, 1.5% ruxolitinib ointment, 30 mg topical twice a day), 3.40 **; in test [3] (Day 35, 1.5% ruxolitinib ointment, 30 mg topical twice a day) it was 2.90 **; in test [3] (Day 38, 1.5% ruxolitinib ointment, 30 mg topical twice a day), 2.60 **. Besides, the “Hair depigmentation area scoring” value in test [3] (Day 41, 1.5% ruxolitinib ointment, 30 mg topical twice a day) is given as 2.40 **; in test [3] (Day 44, 1.5% ruxolitinib ointment, 30 mg topical twice a day) it was 2.30 **; in test [3] (Day 47, 1.5% ruxolitinib ointment, 30 mg topical twice a day) it was 2.20 **; in test [3] (Day 50, 1.5% ruxolitinib ointment, 30 mg topical twice a day), 2.20 **. The “mean value of the reduction rate of the depigmentation area score” value in test [3] (day 50, 1.5% ruxolitinib ointment, 30 mg (5 mg/cm^2) topical) is 56.9%. Further, the “number of the melanin-containing hair follicles, times that of the model control group” value in test [4] was “about 6 times”. Besides, the “Number of melanin-containing hair follicles” value in test [4] (setting [5]) was 41.7±16.7 and 41.7. Further, the “Proportion of melanin-containing hair follicles (%)” value in test [4] (setting [5]) was 29.8 ± 9.9% and 29.8%.
